Legend:
[1] = molecular target: T1, Phosphatidylinositol 4,5-bisphosphate 3-kinase catalytic subunit delta isoform (Homo sapiens, UniProt O00329); test: Inhibition of recombinant human PI3Kdelta using PIP2 as substrate after 35 to 40 mins by HTRF assay
T1 sequence (O00329 whole entry): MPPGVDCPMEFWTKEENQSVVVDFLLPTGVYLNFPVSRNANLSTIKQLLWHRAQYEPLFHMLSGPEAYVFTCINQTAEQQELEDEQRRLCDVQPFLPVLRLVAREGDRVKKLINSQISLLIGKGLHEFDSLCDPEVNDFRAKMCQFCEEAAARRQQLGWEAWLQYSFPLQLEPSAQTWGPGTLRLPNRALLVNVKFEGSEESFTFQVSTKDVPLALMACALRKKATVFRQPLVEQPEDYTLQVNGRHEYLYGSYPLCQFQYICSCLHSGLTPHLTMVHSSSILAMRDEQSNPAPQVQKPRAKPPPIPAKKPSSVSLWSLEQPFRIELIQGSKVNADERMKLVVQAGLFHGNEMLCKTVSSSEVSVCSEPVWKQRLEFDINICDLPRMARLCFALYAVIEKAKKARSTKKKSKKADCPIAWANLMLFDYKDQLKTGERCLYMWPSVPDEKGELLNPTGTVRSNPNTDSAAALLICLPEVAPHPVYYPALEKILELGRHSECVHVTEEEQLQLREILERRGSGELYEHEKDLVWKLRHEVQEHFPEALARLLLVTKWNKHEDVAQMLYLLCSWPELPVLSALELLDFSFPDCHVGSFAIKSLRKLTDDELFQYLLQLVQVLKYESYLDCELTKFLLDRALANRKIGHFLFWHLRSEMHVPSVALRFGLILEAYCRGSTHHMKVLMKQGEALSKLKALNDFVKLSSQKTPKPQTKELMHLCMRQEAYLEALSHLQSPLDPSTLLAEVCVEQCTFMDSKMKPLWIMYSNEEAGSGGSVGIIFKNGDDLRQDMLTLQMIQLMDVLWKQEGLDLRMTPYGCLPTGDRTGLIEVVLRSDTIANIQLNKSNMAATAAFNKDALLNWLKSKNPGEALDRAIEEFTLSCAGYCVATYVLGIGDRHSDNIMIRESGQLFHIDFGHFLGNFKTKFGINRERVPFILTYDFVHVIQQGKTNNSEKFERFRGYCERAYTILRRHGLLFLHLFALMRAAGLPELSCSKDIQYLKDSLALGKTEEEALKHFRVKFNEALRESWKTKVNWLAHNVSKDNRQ

[2] = molecular target: Phosphatidylinositol 4,5-bisphosphate 3-kinase catalytic subunit alpha isoform (Homo sapiens, UniProt P42336); test: Inhibition of human PI3Kalpha using phosphatidyl inositol as substrate after 3 hrs by Kinase-Glo Plus reagent-based luminescence assay
Chain of Phosphatidylinositol 4,5-bisphosphate 3-kinase catalytic subunit alpha isoform (P42336 whole entry, canonical isoform): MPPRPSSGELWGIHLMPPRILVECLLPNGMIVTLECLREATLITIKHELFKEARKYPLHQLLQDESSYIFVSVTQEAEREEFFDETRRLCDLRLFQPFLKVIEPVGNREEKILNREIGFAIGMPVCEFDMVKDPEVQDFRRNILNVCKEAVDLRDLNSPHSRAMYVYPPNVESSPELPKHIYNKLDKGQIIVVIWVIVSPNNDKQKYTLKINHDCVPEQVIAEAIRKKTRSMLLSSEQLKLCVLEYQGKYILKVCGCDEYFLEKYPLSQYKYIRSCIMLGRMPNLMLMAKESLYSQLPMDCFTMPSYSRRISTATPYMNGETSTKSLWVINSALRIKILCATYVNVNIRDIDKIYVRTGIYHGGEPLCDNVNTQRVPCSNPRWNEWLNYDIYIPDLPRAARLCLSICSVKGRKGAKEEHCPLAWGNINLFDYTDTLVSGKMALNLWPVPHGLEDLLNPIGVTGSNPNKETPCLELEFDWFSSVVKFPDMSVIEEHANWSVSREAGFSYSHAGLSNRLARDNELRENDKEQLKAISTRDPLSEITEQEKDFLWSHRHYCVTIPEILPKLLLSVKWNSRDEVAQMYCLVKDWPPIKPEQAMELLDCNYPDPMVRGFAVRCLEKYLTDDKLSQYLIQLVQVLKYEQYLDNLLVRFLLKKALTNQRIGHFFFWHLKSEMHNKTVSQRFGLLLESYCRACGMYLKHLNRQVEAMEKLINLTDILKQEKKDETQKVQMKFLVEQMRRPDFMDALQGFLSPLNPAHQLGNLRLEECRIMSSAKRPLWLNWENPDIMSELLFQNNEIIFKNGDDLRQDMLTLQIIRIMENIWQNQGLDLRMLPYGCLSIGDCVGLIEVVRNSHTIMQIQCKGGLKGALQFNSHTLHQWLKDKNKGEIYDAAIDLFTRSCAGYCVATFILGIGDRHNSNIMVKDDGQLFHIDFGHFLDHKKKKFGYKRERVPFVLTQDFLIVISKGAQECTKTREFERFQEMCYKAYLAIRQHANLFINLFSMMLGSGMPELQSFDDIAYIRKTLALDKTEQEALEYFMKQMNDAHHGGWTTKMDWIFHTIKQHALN

[3] = molecular target: Phosphatidylinositol 4,5-bisphosphate 3-kinase catalytic subunit beta isoform (Homo sapiens, UniProt P42338); test: Inhibition of recombinant human PI3Kbeta using PIP2 as substrate after 35 to 40 mins by HTRF assay
Chain of Phosphatidylinositol 4,5-bisphosphate 3-kinase catalytic subunit beta isoform (P42338 whole entry, canonical isoform): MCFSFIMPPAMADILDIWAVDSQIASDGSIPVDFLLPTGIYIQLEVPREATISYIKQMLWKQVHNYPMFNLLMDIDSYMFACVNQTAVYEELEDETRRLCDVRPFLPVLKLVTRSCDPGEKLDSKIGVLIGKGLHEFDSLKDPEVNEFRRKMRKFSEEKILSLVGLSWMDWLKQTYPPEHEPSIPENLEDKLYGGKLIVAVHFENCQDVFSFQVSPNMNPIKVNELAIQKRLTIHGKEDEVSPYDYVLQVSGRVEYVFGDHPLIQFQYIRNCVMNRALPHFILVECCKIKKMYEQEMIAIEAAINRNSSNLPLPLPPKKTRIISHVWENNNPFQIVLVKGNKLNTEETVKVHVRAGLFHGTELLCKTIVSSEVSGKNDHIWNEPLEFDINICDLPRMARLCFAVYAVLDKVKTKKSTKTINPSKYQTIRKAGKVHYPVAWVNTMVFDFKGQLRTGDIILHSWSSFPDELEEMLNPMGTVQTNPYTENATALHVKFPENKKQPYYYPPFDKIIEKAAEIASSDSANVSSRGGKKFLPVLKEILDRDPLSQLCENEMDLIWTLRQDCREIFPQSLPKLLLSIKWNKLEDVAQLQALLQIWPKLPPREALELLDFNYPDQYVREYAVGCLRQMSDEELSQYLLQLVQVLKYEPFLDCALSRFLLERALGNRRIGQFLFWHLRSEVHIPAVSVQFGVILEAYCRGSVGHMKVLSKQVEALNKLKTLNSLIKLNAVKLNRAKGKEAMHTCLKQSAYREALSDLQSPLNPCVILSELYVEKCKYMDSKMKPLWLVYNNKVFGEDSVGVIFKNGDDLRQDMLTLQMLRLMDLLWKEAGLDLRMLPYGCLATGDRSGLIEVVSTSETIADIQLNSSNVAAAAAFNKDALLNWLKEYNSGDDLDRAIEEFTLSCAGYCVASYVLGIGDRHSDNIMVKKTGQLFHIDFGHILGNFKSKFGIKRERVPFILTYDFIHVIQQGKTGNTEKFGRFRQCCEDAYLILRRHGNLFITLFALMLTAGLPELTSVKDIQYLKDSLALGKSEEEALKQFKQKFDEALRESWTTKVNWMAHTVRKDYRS

[4] = molecular target: Phosphatidylinositol 4,5-bisphosphate 3-kinase catalytic subunit gamma isoform (Homo sapiens, UniProt P48736); test: Inhibition of recombinant human PI3Kgamma using PIP2 as substrate after 35 to 40 mins by HTRF assay
Chain of Phosphatidylinositol 4,5-bisphosphate 3-kinase catalytic subunit gamma isoform (P48736 whole entry, canonical isoform): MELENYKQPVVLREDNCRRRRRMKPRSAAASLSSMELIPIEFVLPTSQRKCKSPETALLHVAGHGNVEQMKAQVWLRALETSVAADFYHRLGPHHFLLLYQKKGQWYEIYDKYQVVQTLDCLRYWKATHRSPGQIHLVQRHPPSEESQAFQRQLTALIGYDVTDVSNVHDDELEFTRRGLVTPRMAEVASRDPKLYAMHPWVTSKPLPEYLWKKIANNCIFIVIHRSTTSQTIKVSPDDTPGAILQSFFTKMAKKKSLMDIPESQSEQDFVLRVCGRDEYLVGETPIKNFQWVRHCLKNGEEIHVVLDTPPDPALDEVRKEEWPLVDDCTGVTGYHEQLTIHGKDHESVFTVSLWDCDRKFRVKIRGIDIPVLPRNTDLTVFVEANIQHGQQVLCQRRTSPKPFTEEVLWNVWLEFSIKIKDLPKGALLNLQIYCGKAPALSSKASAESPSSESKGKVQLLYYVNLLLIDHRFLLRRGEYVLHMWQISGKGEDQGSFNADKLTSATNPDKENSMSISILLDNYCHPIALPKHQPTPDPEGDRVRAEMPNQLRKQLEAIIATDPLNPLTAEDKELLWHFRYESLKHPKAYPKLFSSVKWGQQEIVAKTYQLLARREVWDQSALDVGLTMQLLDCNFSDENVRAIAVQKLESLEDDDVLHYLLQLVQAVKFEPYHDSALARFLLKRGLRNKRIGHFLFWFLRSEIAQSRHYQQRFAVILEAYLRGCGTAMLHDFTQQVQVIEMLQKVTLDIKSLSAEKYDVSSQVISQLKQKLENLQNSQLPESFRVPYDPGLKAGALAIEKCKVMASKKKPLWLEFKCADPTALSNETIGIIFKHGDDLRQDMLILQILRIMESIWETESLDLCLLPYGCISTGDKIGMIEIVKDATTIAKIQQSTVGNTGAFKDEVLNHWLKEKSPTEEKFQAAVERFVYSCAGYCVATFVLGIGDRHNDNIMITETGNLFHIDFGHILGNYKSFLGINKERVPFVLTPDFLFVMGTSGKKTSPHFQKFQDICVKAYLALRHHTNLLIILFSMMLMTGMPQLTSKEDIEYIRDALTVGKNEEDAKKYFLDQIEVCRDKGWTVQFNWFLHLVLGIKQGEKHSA

B-cell = test: Antiproliferative activity against anti-IgM antibody-stimulated BALB/c mouse B cells after 2 days by Alamar Blue reagent-based assay; conditions: 48 h
[5] = Intrinsic clearance in CD1 mouse liver microsomes at 0.2 uM up to 45 mins in presence of NADPH by LC-MS/MS analysis; type: ADME, Microsome; conditions: read-out: CLH
[6] = molecular target: T2, Phosphatidylinositol 4,5-bisphosphate 3-kinase catalytic subunit delta isoform (Homo sapiens) (UniProt O00329); test: Inhibition of recombinant human PI3Kdelta at 0.1 uM using PIP2 as substrate after 35 to 40 mins by HTRF assay relative to control
T2 sequence (whole entry): T1 sequence (O00329 whole entry)

| SMILES | IC50 [1] [nM] | IC50 [2] [nM] | IC50 [3] [nM] | IC50 [4] [nM] | IC50 (B-cell) [nM] | CLint scaled at 0.2 µM [5] [mL/min/kg] | inhibition [6] [%] |
| --- | --- | --- | --- | --- | --- | --- | --- |
| COc1ncc(N2CCc3ncnc(Nc4cccc(C(=O)NC5CCOCC5)c4)c3C2)cc1C | 49 |  |  |  |  |  |  |
| CCOC(=O)c1cccc(Nc2ncnc3c2CN(c2cnc(OC)c(C)c2)CC3)c1 | 120 |  |  |  |  |  |  |
| COc1ncc(N2CCc3ncnc(Nc4cccc(C(=O)N5CCOCC5)c4)c3C2)cc1C | 47 |  |  |  |  |  |  |
| COCC(=O)N1CCC(Nc2cc(-c3ncnc4c3CN(c3cnc(OC)c(C)c3)CC4)ccn2)CC1 | 9.2 | 9800 | > 10000 | > 10000 | 7.9 | 580 |  |
| COc1ncc(N2CCc3ncnc(Nc4ccccc4)c3C2)cc1C |  |  |  |  |  |  | 14 |
| CCN1CCC(Nc2cc(-c3ncnc4c3CN(c3cnc(OC)c(C)c3)CC4)ccn2)CC1 | 8.5 | 4600 | > 10000 | > 10000 | 4.8 | 160 |  |
| COCCNc1cc(-c2ncnc3c2CN(c2cnc(OC)c(C)c2)CC3)ccn1 | 39 |  |  |  |  |  |  |
| COc1ncc(N2CCc3ncnc(-c4cnn(CC5CCOCC5)c4)c3C2)cc1C | 110 | 4900 |  |  |  |  |  |
| COc1ncc(N2CCc3ncnc(-c4ccnc(NC5CCNCC5)c4)c3C2)cc1C | 25 | > 10000 | > 10000 | > 10000 | 24 |  |  |
| COc1ncc(N2CCc3ncnc(-c4cnn(C5CCOCC5)c4)c3C2)cc1C | 180 | 2600 |  |  |  |  |  |

Reference: ChEMBL document CHEMBL4368932 (Bioorg Med Chem, 2019)
